Broadly, the IC50 is the midpoint of a concentration-inhibition curve.

For the assay, the system named is IL-1β production in PMA-differentiated THP-1 cells. The assay is described as follows: IL-1β production in PMA-differentiated THP-1 cells stimulated with gramicidin (hTHP-1 assay, 2% bovine serum; Bioassays 1 and 2). It counts as cell-based, human. As to conditions: Homo sapiens, THP-1; hTHP-1 assay containing 2% bovine serum; Table 12, by Example #; read-out: Average IC50 of compounds in hTHP-1 assay. In a few lines: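 PMA-differentiated THP-1 cells in 2% FBS RPMI were pre-treated with compound for 1 h, then given gramicidin 5 μM for 2 h, and supernatants were assayed to give IC50. Protocol 1: PMA 10 μg/ml 24 h, 1×10^6 cells/ml, ELISA, 1% DMSO. Protocol 2: PMA 20 ng/ml 16-18 h, 50,000 cells/well, HTRF, 0.38% DMSO.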

`CC(C)(O)c1cnc(S(=O)(=O)NC(=O)Cc2c3c(c(F)c4c2CCC4)CCC3)s1` [Example 69, 2-(8-fluoro-1,2,3,5,6,7-hexahydros-indacen-4-yl)-N-(5-(2-hydroxypropan-2-yl)thiazol-2-ylsulfonyl)acetamide]: the IC50 fell in the range of 15 to 60 µM.
Regarding `CC(C)c1cc(Cl)cc(C(C)C)c1CC(=O)NS(=O)(=O)c1ncc(C(C)(C)O)s1` [Example 70, 2-(4-chloro-2,6-diisopropylphenyl)-N-(5-(2-hydroxypropan-2-yl)thiazol-2-ylsulfonyl)acetamide], the IC50 is < 1 µM.
As for `CC(C)c1ccc(F)c(C(C)C)c1CC(=O)NS(=O)(=O)c1ncc(C(C)(C)O)s1` [Example 71, 2-(3-fluoro-2,6-diisopropylphenyl)-N-(5-(2-hydroxypropan-2-yl)thiazol-2-ylsulfonyl)acetamide], the IC50 was in the range of 1 to 5 µM.
Take `CC(C)c1cc(C(F)(F)F)cc(C(C)C)c1CC(=O)NS(=O)(=O)c1ncc(C(C)(C)O)s1` [Example 72, 2-(2,6-diisopropyl-4-(trifluoromethyl)phenyl)-N-(5-(2-hydroxypropan-2-yl)thiazol-2-ylsulfonyl)acetamide]: the IC50 was 1 to 5 µM.
With `COC(C)(C)c1cnc(S(=O)(=O)NC(=O)Cc2c(C(C)C)cc(F)cc2C(C)C)s1` [Example 73, 2-(4-fluoro-2,6-diisopropylphenyl)-N-(5-(2-methoxypropan-2-yl)thiazol-2-ylsulfonyl)acetamide], the IC50 was 1 to 5 µM.
With `COC(C)(C)c1cnc(S(=O)(=O)NC(=O)Cc2c(C(C)C)cc(C#N)cc2C(C)C)s1` [Example 74, 2-(4-cyano-2,6-diisopropylphenyl)-N-(5-(2-methoxypropan-2-yl)thiazol-2-ylsulfonyl)acetamide] the figure was 5 to 15 µM; with `CC(C)c1cc(F)cc(C(C)C)c1CC(=O)NS(=O)(=O)c1cnc(C(C)(C)O)s1` [Example 75, 2-(4-fluoro-2,6-diisopropylphenyl)-N-(2-(2-hydroxypropan-2-yl)thiazol-5-ylsulfonyl)acetamide], < 1 µM.
With `CC(C)c1cc(F)c(F)c(C(C)C)c1CC(=O)NS(=O)(=O)c1ncc(C(C)(C)O)s1` [Example 76, 2-(3,4-difluoro-2,6-diisopropylphenyl)-N-(5-(2-hydroxypropan-2-yl)thiazol-2-ylsulfonyl)acetamide] the figure was < 1 µM; with `CC(C)c1c(F)cc(F)c(C(C)C)c1CC(=O)NS(=O)(=O)c1ncc(C(C)(C)O)s1` [Example 77, 2-(3,5-difluoro-2,6-diisopropylphenyl)-N-(5-(2-hydroxypropan-2-yl)thiazol-2-ylsulfonyl)acetamide], 1 to 5 µM; with `CC(C)(O)c1cnc(S(=O)(=O)NC(=O)Cc2c(C3CC3)cccc2C2CC2)s1` [Example 78, 2-(2,6-dicyclopropylphenyl)-N-(5-(2-hydroxypropan-2-yl)thiazol-2-ylsulfonyl)acetamide], 5 to 15 µM.
In the case of `CC(C)c1cc(Cl)cc(C(F)(F)F)c1CC(=O)NS(=O)(=O)c1ncc(C(C)(C)O)s1` [Example 79, 2-(4-chloro-2-isopropyl-6-(trifluoromethyl)phenyl)-N-(5-(2-hydroxypropan-2-yl)thiazol-2-ylsulfonyl)acetamide], the 50% inhibitory concentration (IC50) was 15 to 60 µM.
For the compound `CC(C)c1cccc(C2CC2)c1CC(=O)NS(=O)(=O)c1ncc(C(C)(C)O)s1` [Example 80, 2-(2-cyclopropyl-6-isopropylphenyl)-N-(5-(2-hydroxypropan-2-yl)thiazol-2-ylsulfonyl)acetamide], the half-maximal inhibitory concentration (IC50) lay within 5 to 15 µM.
Take `CC(C)c1cc(F)cc(C(C)C)c1CC(=O)NS(=O)(=O)c1nc(C(C)(C)O)cs1` [Example 81, 2-(4-fluoro-2,6-diisopropylphenyl)-N-(4-(2-hydroxypropan-2-yl)thiazol-2-ylsulfonyl)acetamide]: the IC50 lay in the range of 15 to 60 µM.
On to `CC(C)c1cc(C#N)cc(C(C)C)c1CC(=O)NS(=O)(=O)c1nc(C(C)(C)O)cs1` [Example 82, 2-(4-cyano-2,6-diisopropylphenyl)-N-(4-(2-hydroxypropan-2-yl)thiazol-2-ylsulfonyl)acetamide], for which the IC50 was in the range of 15 to 60 µM.
In the case of `CC(C)c1c(F)c(Cl)c(F)c(C(C)C)c1CC(=O)NS(=O)(=O)c1ncc(C(C)(C)O)s1` [Example 83, 2-(4-chloro-3,5-difluoro-2,6-diisopropylphenyl)-N-(5-(2-hydroxypropan-2-yl)thiazol-2-ylsulfonyl)acetamide], the IC50 is < 1 µM.
As for `CC(C)c1cnc(S(=O)(=O)NC(=O)Cc2c(C(C)C)cc(F)cc2C(C)C)s1` [Example 84, 2-(4-fluoro-2,6-diisopropylphenyl)-N-(5-isopropylthiazol-2-ylsulfonyl)acetamide], the IC50 was 5 to 15 µM.
In the case of `CC(C)c1cc(OC(F)(F)F)cc(C(C)C)c1CC(=O)NS(=O)(=O)c1ncc(C(C)(C)O)s1` [Example 85, 2-(2,6-diisopropyl-4-(trifluoromethoxy)phenyl)-N-(5-(2-hydroxypropan-2-yl)thiazol-2-ylsulfonyl)acetamide] it was 1 to 5 µM; in that of `CCc1cc(F)cc(CC)c1CC(=O)NS(=O)(=O)c1ncc(C(C)(C)O)s1` [Example 86, 2-(2,6-diethyl-4-fluorophenyl)-N-(5-(2-hydroxypropan-2-yl)thiazol-2-ylsulfonyl)acetamide], 5 to 15 µM.
With `CC(C)(O)c1cnc(S(=O)(=O)NC(=O)Cc2cc(C(F)(F)F)ccc2Cl)s1` [Example 87, 2-(2-chloro-5-(trifluoromethyl)phenyl)-N-(5-(2-hydroxypropan-2-yl)thiazol-2-ylsulfonyl)acetamide] the figure was 15 to 60 µM; with `COc1c(Cl)cc(Cl)cc1CC(=O)NS(=O)(=O)c1ncc(C(C)(C)O)s1` [Example 88, 2-(3,5-dichloro-2-methoxyphenyl)-N-(5-(2-hydroxypropan-2-yl)thiazol-2-ylsulfonyl)acetamide], 15 to 60 µM.
In the case of `CC(C)c1cc(F)cc(C(C)C)c1CC(=O)NS(=O)(=O)c1ncc(C(C)(C)O)s1` [Example 89, 2-(4-Fluoro-2,6-diisopropylphenyl)-N-(5-(2-hydroxypropan-2-yl)thiazol-2-ylsulfonyl)acetamide], the IC50 was 1 to 5 µM.
With `CC(C)c1cc(F)cc(C(C)C)c1CC(=O)NS(=O)(=O)c1ncc(CO)s1` [Example 91, 2-(4-Fluoro-2,6-diisopropylphenyl)-N-(5-(hydroxymethyl)thiazol-2-ylsulfonyl)acetamide] the figure was 15 to 60 µM; with `CC(C)c1cc(F)cc(C(C)C)c1CC(=O)NS(=O)(=O)c1ncc(C(C)O)s1` (stereo not shown) [Example 92, 2-(4-fluoro-2,6-diisopropylphenyl)-N-(5-(1-hydroxyethyl)thiazol-2-ylsulfonyl)acetamide], 1 to 5 µM; with `CC(C)c1cc(C#N)cc(C(C)C)c1CC(=O)NS(=O)(=O)c1ncc(C(C)O)s1` (stereo not shown) [Example 93, 2-(4-cyano-2,6-diisopropylphenyl)-N-(5-(1-hydroxyethyl)thiazol-2-ylsulfonyl)acetamide], 1 to 5 µM.
`CC(C)c1cc(F)cc(C(C)C)c1CC(=O)NS(=O)(=O)c1ccc(C(C)(C)O)c(CO)c1` [Example 94, 2-(4-fluoro-2,6-diisopropylphenyl)-N-(3-(hydroxymethyl)-4-(2-hydroxypropan-2-yl)phenylsulfonyl)acetamide]: the IC50 was 1 to 5 µM.
For `CC(C)c1cc(C#N)cc(C(C)C)c1CC(=O)NS(=O)(=O)c1ccc(C(C)(C)O)c(CO)c1` [Example 95, 2-(4-cyano-2,6-diisopropylphenyl)-N-(3-(hydroxymethyl)-4-(2-hydroxypropan-2-yl)phenylsulfonyl)acetamide], the IC50 lay in the range of 1 to 5 µM.
`CC(C)c1cc(F)cc(C(C)C)c1CC(=O)NS(=O)(=O)c1ncc(C(C)CO)s1` (stereo not shown) [Example 96, 2-(4-Fluoro-2,6-diisopropylphenyl)-N-(5-(1-hydroxypropan-2-yl)thiazol-2-ylsulfonyl)acetamide]: the IC50 was 5 to 15 µM.
For `CC(C)c1cc(F)cc(C(C)C)c1CC(=O)NS(=O)(=O)c1ncc(CCO)s1` [Example 97, 2-(4-fluoro-2,6-diisopropylphenyl)-N-(5-(2-hydroxyethyl)thiazol-2-ylsulfonyl)acetamide], the IC50 is 5 to 15 µM.

For the origin of these results see US11447460B2, “Compounds and compositions for treating conditions associated with NLRP activity” (Novartis AG, priority 2016, dated 2022).
